Assay [1] relates to phospho-ERK in HCT116 cell line. As to the kind of experiment: Phospho-ERK Cell-Based Assay, HCT116. Particulars: Homo sapiens, HCT-116, exposure 2 h or 24 h. The method, then: Compounds are tested in a cell-based phospho-ERK ELISA using the following cell lines:
(§1) Both cell lines are maintained in DMEM/F12 (1:1) media (Gibco) supplemented with 10% FCS at 37° C. in a 5% CO2 humidified incubator.
Cells are seeded in 96-well plates at 2,000 cells/well and after 24 h they are exposed to different concentrations of compounds in 0.83% DMSO. Cells are grown for a further 2 h or 24 h, fixed with formaldehyde (2% final) and permeabilised with methanol. Following blocking with TBST-3% BSA, fixed cells are incubated with primary antibody (anti-phospho ERK from rabbit) over-night at 4° C. Cells are incubated with Propidium Iodide (DNA fluorescent dye) and detection of cellular p-ERK is performed using an anti-rabbit secondary antibody conjugated to the fluorescent Alexa Fluor 488 dye (Molecular probes). The fluorescence is analysed using the Acumen Explorer (TTP Labtech), a laser-scanning microplate cytometer, and the Alexa Fluor 488 signal is normalised to the PI signal (proportional to cell number).
The EC50 is defined as the concentration at which a given compound achieves a signal half way between the baseline and the maximum response. EC50 values are calculated using the XLfit software package (version 2.0.5).

Assay [2] relates to A375 human malignant melanoma. As to the kind of experiment: Cell Proliferation Assay, A375. In kind it is cell-based. Particulars: A-375, A375 cell line, 72 h, CellTiter-Glo. The protocol:
(§2) Compounds are tested in a cell proliferation assay using the following cell lines:
as §1
(§3) Cells are seeded in 96-well plates at 2,000 cells/well and after 24 hours they are exposed to different concentrations of compounds in 0.83% DMSO. Cells are grown for a further 72 h, and an equal volume of CellTiter-Glo reagent (Promega) is added to each well. This lyses the cells and generates a luminescent signal proportional to the amount of ATP released (and therefore proportional to the number of cells in the well) that can be detected using a multi-well luminometer.
(§4) The EC50 is defined as the concentration at which a given compound achieves 50% inhibition of control. IC50 values are calculated using the XLfit software package (version 2.0.5).
Background: In ATP-based viability assays light output follows the ATP content of the culture.

In assay [3] the target is constitutively activated human mutant MEK1 (Homo sapiens, UniProt Q02750). The assay can be described thus: MEK Assay (MEK Activity Assay). Type of assay: biochemical. Particulars: 15 nM MEK1, 50 μM ATP, GST-ERK1 substrate, 30 minutes, HTRF; read-out: IC50 in the MEK activity assay of Example 1. The protocol:
Constitutively activated human mutant MEK1 expressed in insect cells is used as source of enzymatic activity at a final concentration in the kinase assay of 15 nM.
The assay is carried out for 30 minutes in the presence of 50 μM ATP using recombinant GST-ERK1 produced in E. Coli as substrate. Phosphorylation of the substrate is detected and quantified using HTRF reagents supplied by Cisbio. These consist of an anti-GST antibody conjugated to allophycocyanin (XL665) and an anti-phospho (Thr202/Tyr204) ERK antibody conjugated to europium-cryptate. These are used at a final concentration of 4 μg/ml and 0.84 μg/ml respectively. The anti-phospho antibody recognises ERK1 dually phosphorylated on Thr202 and Tyr204. When both antibodies are bound to ERK1 (i.e. when the substrate is phosphorylated), energy transfer from the cryptate to the allophycocyanin occurs following excitation at 340 nm, resulting in fluorescence being emitted that is proportional to the amount of phosphorylated substrate produced. Fluorescence is detected using a multiwell fluorimeter.
Compounds are diluted in DMSO prior to addition to assay buffer and the final DMSO concentration in the assay is 1%.
The IC50 is defined as the concentration at which a given compound achieves 50% inhibition of control. IC50 values are calculated using the XLfit software package (version 2.0.5).

Assay [4] concerns HCT116 human colorectal carcinoma. As to the kind of experiment: Cell Proliferation Assay, HCT116. Type of assay: cell-based. Particulars: HCT-116, HCT116 cell line, 72 h, CellTiter-Glo. The method, then: as §2, §1, §3, §4

Where only a bound is given, the exact number is not on record here.

As usually defined, the EC50 is the concentration at which the effect is half-maximal. As usually defined, the IC50 is the concentration that inhibits the measured activity by half.

Chain of constitutively activated human mutant MEK1 (Q02750 whole entry S218D/S222D, form open): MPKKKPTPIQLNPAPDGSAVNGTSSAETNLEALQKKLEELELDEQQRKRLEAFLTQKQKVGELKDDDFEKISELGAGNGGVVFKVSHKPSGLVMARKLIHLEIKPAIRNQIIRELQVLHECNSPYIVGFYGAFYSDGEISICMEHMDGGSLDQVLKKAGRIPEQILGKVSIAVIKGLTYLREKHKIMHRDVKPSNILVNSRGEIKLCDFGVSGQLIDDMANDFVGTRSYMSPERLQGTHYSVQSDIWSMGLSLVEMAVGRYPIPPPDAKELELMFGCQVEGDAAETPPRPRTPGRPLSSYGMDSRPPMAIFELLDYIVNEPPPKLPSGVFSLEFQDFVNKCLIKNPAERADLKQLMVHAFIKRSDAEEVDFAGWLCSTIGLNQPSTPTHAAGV

For the compound `O=C1NCc2cc(C(=O)NOCCO)c(Nc3ccc(I)cc3F)cc21` [Example 5, 6-(2-Fluoro-4-iodo-phenylamino)-1-oxo-2,3-dihydro-1H-isoindole-5-carboxylic acid (2-hydroxy-ethoxy)-amide], the EC50 in assay [1], in assay [2] and in assay [4] was below 500 nM each time. Also, the IC50 in assay [3] was below 100 nM.
